Drawing on PubChem BioAssay (NCI), this text covers TGI for two compounds.

For the assay, the system named is P388/ADR leukemia. Put plainly: NCI tumour cell line growth inhibition, 48 h.

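1) Cells in 96-well plates. 2) Compound, 48 h, 5 concentrations. 3) Linear interpolation between surrounding doses. 4) Unreached endpoint = highest concentration. TGI marks complete inhibition of growth.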

The compound `O=NN(CCCl)C(=O)NC1CCCCC1` returned a TGI of 47.4 µM.
`Nc1nc(=S)c2[nH]cnc2[nH]1` registered a TGI of 12.9 µM.
